Results as given in patent publication US20260144788A1, “COMPOUND FOR SHP2 PROTEIN DEGRADATION AND MEDICAL USES THEREOF” (UBIX THERAPEUTICS, INC., priority 2022, published 2026).

Target: T1, SHP2 protein (Homo sapiens, UniProt Q06124)
T1 sequence (Q06124 1-593): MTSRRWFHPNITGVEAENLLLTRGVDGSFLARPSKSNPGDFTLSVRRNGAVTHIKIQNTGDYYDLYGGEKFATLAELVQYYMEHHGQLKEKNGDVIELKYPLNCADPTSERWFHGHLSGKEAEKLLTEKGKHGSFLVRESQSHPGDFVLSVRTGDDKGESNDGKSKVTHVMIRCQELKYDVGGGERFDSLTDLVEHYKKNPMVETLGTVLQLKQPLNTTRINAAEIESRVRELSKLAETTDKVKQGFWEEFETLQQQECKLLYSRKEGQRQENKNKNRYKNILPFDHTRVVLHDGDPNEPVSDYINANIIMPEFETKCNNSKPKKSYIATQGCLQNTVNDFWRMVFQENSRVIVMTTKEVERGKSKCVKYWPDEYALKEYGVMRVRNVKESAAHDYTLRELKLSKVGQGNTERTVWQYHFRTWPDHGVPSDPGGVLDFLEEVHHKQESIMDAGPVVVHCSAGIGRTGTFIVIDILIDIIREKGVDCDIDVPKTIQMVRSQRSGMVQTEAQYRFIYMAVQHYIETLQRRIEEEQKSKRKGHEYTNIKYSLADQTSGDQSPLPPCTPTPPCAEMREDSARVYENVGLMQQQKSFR
Assay: Measurement of SHP2 protein degradation in NCI-H358 cells (western blotting)
Assay type: cell-based
Design: endogenous in cells; host or cells: NCI-H358
Conditions: harvested after 24 hours
Method: H358 cells were treated with the synthesized Example compounds, and the amount of SHP2 protein present in the cells was measured using western blotting detection. The protocol for the experiment using H358 cells is as follows.
[Culture]H358 cells were resuspended in RPMI1640 with 25 mM HEPES (Hyclone, SH30255.01), 10% FBS (Hyclone, SV30207.02), 1% Penicillin-streptomycin (Welgene, LS 202-02) media, seeded at 3×10^5/mL in 12-well plates (1 mL each), and cultured for 24 hours.
[Compound treatment] Before compound treatment, the media was changed to 1 mL media, and then the 12-well plate was treated as follows. The 10 mM stock dissolved in DMSO was serially diluted 1/100 or 1/10 with the media, and the compound was treated to the cells at a final concentration of 0.001, 0.01, and 0.1 μM, and harvested after 24 hours. For the negative control group, DMSO diluted 1/1000 in the media was added (1 μL DMSO+999 μL media).
[Harvest]24 hours after compound treatment, each well was scraped with a cell lifter (SPL, 90040), pipetted with a 1 mL pipette, collected in a 1.5 mL microtube, and centrifuged (500 g, 5 min, 4° C.). The supernatant was removed, washed with PBS, and centrifuged again (500 g, 5 min, 4° C.). Afterwards, the supernatant was removed to prepare a pellet.
[Cell lysis and sample preparation] Lysis buffer was prepared as follows. RIPA buffer (Biosesang, RC2038-050-00)+0.5 mM PMSF (SIGMA, P7626)+1× Protease/Phosphatase Inhibitor (Cell signaling, 5872S) were added at 30 μL per tube, vortexed, and incubated on ice for 30 minutes. Afterwards, sonication was performed (10 sec pulse, 30 sec rest, 5 cycles, 70% amplification) and centrifugation was performed (15,000 g, 15 min, 4° C.), and only the supernatant was transferred to a microtube. A 96-well plate was diluted to 1/4 with 7.5 μL of RIPA buffer and 2.5 μL of sample, and 200 μL each was added after mixing A and B of the BCA Protein Assay Kit (iNtRON, 21071) in a ratio of 50:1. The plate was incubated at 37° C. for 30 minutes and left at room temperature for 10 minutes. After shaking for 10 seconds with a SYNERGY H1 microplate reader from BioTek, the absorbance was measured at 562 nm. The protein was quantified using the measured value to make a sample, which was then incubated at 70° C. for 10 minutes. The sample buffer used here was a mixture of NuPAGE or Bolt 4× sample buffer (Invitrogen) and each 10× sample reducing agent depending on the gel to be used, and RIPA buffer was used for protein dilution.
[Western blotting detection] Equal amounts of samples were loaded onto NuPAGE or Bolt Bis-tris 4-12% gradient gel and run (200 V, 35 min). This was transferred to […] NC membrane using Trans-blot Turbo (BIO-RAD) (1.3 A constant, 25 V limit, 15 min), and blocked with 5% skim milk/0.2% TBST for 45 min at room temperature. Anti-SHPTP2 Mouse (1:1,000 in 5% skim milk/0.2% TBST, size: 70 kDa, Santa cruz sc-7384) and Anti-GAPDH Rabbit (1:2,000 in 5% skim milk or 5% BSA/0.2% TBST, size: 37 kDa, CST #2118) were added and incubated overnight at 4° C. After washing three times with 0.2% TBST washing buffer for 5 minutes each, secondary antibodies Anti-Mouse IgG (1:5,000 in 5% skim milk/0.2% TBST, CST) and IRDye® 680RD Goat anti-Rabbit IgG Secondary Antibody (1:10,000 in 5% skim milk/0.2% TBST, LI-COR 926-68071) were added, and incubated on a rocker at room temperature for 45 minutes. The resultants were washed five times with 0.2% TBST washing buffer for 5 minutes each, and detected using LI-COR's Odyssey. GAPDH was detected with a 700 nm channel, and SHPTP2 was detected using SuperSignal West Pico PLUS Chemiluminescent Substrate.

Structure (SMILES) | SHP2% degradation (0.01 μM) | SHP2% degradation (0.1 μM)
CC(=O)N[C@H](C(=O)N1C[C@H](O)C[C@H]1C(=O)NCc1ccc(-c2scnc2C)cc1O[C@H]1CC[C@H](C(=O)N2CCC(Nc3nccc(Sc4cnc(N5CCC(C)(CN)CC5)c(CO)n4)c3Cl)CC2)CC1)C(C)(C)C [Example 45, (2S,4R)-1-((S)-2-acetamido-3,3-dimethylbutanoyl)-N-(2-(((1r,4S)-4-(4-((4-((5-(4-(aminomethyl)-4-methylpiperidin-1-yl)-6-(hydroxymethyl)pyrazin-2-yl)thio)-3-chloropyridin-2-yl)amino)piperidine-1-carbonyl)cyclohexyl)oxy)-4-(4-methylthiazol-5-yl)benzyl)-4-hydroxypyrrolidine-2-carboxamide] | 97.0% | 99.4%
CC(=O)N[C@H](C(=O)N1C[C@H](O)C[C@H]1C(=O)NCc1ccc(-c2scnc2C)cc1O[C@H]1CC[C@H](C(=O)N2CCC(c3nccc(Sc4cnc(N5CCC(C)(CN)CC5)cn4)c3Cl)CC2)CC1)C(C)(C)C [Example 47, (2S,4R)-1-((S)-2-acetamido-3,3-dimethylbutanoyl)-N-(2-(((1r,4S)-4-(4-(4-((5-(4-(aminomethyl)-4-methylpiperidin-1-yl)pyrazin-2-yl)thio)-3-chloropyridin-2-yl)piperidine-1-carbonyl)cyclohexyl)oxy)-4-(4-methylthiazol-5-yl)benzyl)-4-hydroxypyrrolidine-2-carboxamide] | −34.6% | 50.6%

Second part, the compound after the results:

SHP2% degradation (0.01 μM) | SHP2% degradation (0.1 μM) | Structure (SMILES)
33.8% | 93.2% | CC(=O)N[C@H](C(=O)N1C[C@H](O)C[C@H]1C(=O)NCc1ccc(-c2scnc2C)cc1O[C@H]1CC[C@H](C(=O)N2CCC(c3cccc(Sc4cnc(N5CCC(C)(CN)CC5)cn4)c3Cl)CC2)CC1)C(C)(C)C [Example 46, (2S,4R)-1-((S)-2-acetamido-3,3-dimethylbutanoyl)-N-(2-(((1r,4S)-4-(4-(3-((5-(4-(aminomethyl)-4-methylpiperidin-1-yl)pyrazin-2-yl)thio)-2-chlorophenyl)piperidine-1-carbonyl)cyclohexyl)oxy)-4-(4-methylthiazol-5-yl)benzyl)-4-hydroxypyrrolidine-2-carboxamide]
88.8% | 98.3% | CC(=O)N[C@H](C(=O)N1C[C@H](O)C[C@H]1C(=O)N[C@@H](C)c1ccc(-c2scnc2C)cc1O[C@H]1CC[C@H](C(=O)N2CC(Nc3cccc(Sc4cnc(N5CCC(C)(CN)CC5)cn4)c3Cl)C2)CC1)C(C)(C)C [Example 48, (2S,4R)-1-((S)-2-acetamido-3,3-dimethylbutanoyl)-N—((S)-1-(2-(((1R,4S)-4-(3-((3-((5-(4-(aminomethyl)-4-methylpiperidin-1-yl)pyrazin-2-yl)thio)-2-chlorophenyl)amino)azetidine-1-carbonyl)cyclohexyl)oxy)-4-(4-methylthiazol-5-yl)phenyl)ethyl)-4-hydroxypyrrolidine-2-carboxamide]
87.1% | 99.4% | CC(=O)N[C@H](C(=O)N1C[C@H](O)C[C@H]1C(=O)N[C@@H](C)c1ccc(-c2scnc2C)cc1O[C@H]1CC[C@H](C(=O)N2CC(Nc3nccc(Sc4cnc(N5CCC(C)(CN)CC5)cn4)c3Cl)C2)CC1)C(C)(C)C [Example 49, (2S,4R)-1-((S)-2-acetamido-3,3-dimethylbutanoyl)-N—((S)-1-(2-(((1R,4S)-4-(3-((4-((5-(4-(aminomethyl)-4-methylpiperidin-1-yl)pyrazin-2-yl)thio)-3-chloropyridin-2-yl)amino)azetidine-1-carbonyl)cyclohexyl)oxy)-4-(4-methylthiazol-5-yl)phenyl)ethyl)-4-hydroxypyrrolidine-2-carboxamide]
